Laboratory results published in paper PMC4393083, “Antiviral Activity and Possible Mechanism of Action of Constituents Identified in Paeonia lactiflora Root toward Human Rhinoviruses” (PLoS ONE, 2015).
Where two headings read alike, the source gives them in different places.

Assays:
[1] = Cytotoxicity MTT assay in HeLa cells; type: cell-based; conditions: human, tetrazolium assay, read-out: CC50 (95% CL)
Protocol: The cytotoxicity of the test materials to two human cell lines was evaluated using an MTT assay described previously by Morgan. In brief, a 10× stock solution of MTT was prepared by adding 5 mg/mL MTT in phosphate-buffered saline (PBS) (pH 7.4). The stock solution was sterile-filtered and stored at −20°C. HeLa and MRC5 cells were seeded onto 96-well culture plates at a density of 3 × 10^4 cells per well for 1 day. The culture medium was removed and the plates with monolayer cells were replaced with media containing several different concentrations (1–1000 μg/mL) of the test materials in dimethylsulfoxide (DMSO). After incubation at 37°C and 5% CO2 for 2 days, the culture plates were then washed once with 200 μL PBS. A volume of 100 μL medium containing 0.05% MTT were added to each well and then incubated for 4 h at the same condition. After then, MTT solution was removed and 150 μL DMSO was added to each well. Finally, the plate was shaken for 15 min to dissolve the purple formazan crystals that had formed. Absorbance was read at 560 nm by using a VersaMax microplate reader (Molecular Devices, Sunnyvale, CA) with a reference absorbance at 670 nm.
The CC50 and IC50 values were determined using GraphPad Prism 5 software program (GraphPad Software, La Jolla, CA). […] The selectivity index (SI) was determined as the ratio of CC50 to IC50 [23]. All data represent the mean ± SD of duplicate or triplicate samples of three independent experiments. […] Data from two groups were analyzed by a Student’s t-test, and multiple groups were analyzed by a one-way analysis of variance and Bonferroni multiple comparison post-test.

HRV-4 = test: Cytopathic effect inhibition assay (MTT), HRV-4 in HeLa cells; type: cell-based, human rhinovirus; conditions: read-out: IC50 (95% CL) HRV-4
Protocol: Extraction procedures of air-dried root of P. lactiflora were performed as described previously by Ngan et al.. For isolation of active principles, viral CPE inhibition assay toward HRV-4 in HeLa cell was used. […]. Column fractions were monitored by TLC on silica gel plates developed with chloroform and methanol (7:3 by volume) mobile phase. Fractions with similar R f values on the TLC plates were pooled. Active fractions 4 to 5 (EI, 2.44 g) and 7 (EII, 0.569 g) were obtained. The active fraction EI was rechromatographed on a silica gel column by elution with chloroform and methanol (70:30 by volume) to give nine fractions (each about 450 mL). A preparative HPLC was used for separation of constituents from the active fractions 3 to 5 (0.176 g). The column was a 4.6 mm i.d. × 150 mm Eclipse XDB-C18 (Agilent, Santa Clara, CA) using a mobile phase of methanol and water (3:7 by volume) at a flow rate of 0.5 mL/min. Chromatographic separations were monitored using a UV detector at 260 nm. […]. The three antiviral principles were characterized as paeonol (PA) (1), gallic acid (GA) (2), and 1,2,3,4,6-penta-O-galloyl-β-D-glucopyranose (PGG) (3) (Fig 1) by spectroscopic analyses, including MS and NMR. PA (1): compound 1 was isolated as an antibacterial principle from P. lactiflora root in our previous work, and the spectral data of compound 1 was largely identical to the published data. GA (2) was identified on the basis of the following evidence: white powder. UV (MeOH): λmax nm = 260. FT-IR: v max cm^–1 = 3491–3063 (OH stretch), 1608 (aromatic C = C). […] The interpretations of proton and carbon signals of compound 2 were largely consistent with those of Sakar et al.. PGG (3): compound 3 was isolated as an antibacterial principle from P. lactiflora root in our previous work, and the spectral data of compound 3 was largely identical to the published data.
Monolayers of HeLa and MRC5 cells were seeded onto a 96-well culture plate as stated previously. Subsequently, 90 μL media containing several different concentrations (1–1000 μg/mL) of each test material in DMSO was put into the wells, and then 10 μL of 10×TCID50 of the virus stock was added to produce an appropriate CPE within 2 days after infection. Ribavirin served as a reference control and was similarly prepared. Negative controls consisted of the DMSO solution. Viral inhibition rate (VIR) (%) was calculated according to the formula [21], VIR = (A tV—A cV)/(A cd—A cV) × 100, where A tV is the optical density measured with a given concentration of the test compound in HRV infected cells; A cV is the optical density measured for the control untreated HRV infected cells; A cd is the optical density measured for the control untreated HRV uninfected cells.
The CC50 and IC50 values were determined using GraphPad Prism 5 software program (GraphPad Software, La Jolla, CA). […] The selectivity index (SI) was determined as the ratio of CC50 to IC50 [23]. All data represent the mean ± SD of duplicate or triplicate samples of three independent experiments. Statistical analyses were carried out using SAS 9.13 program (SAS Institute, Cary, NC). Data from two groups were analyzed by a Student’s t-test, and multiple groups were analyzed by a one-way analysis of variance and Bonferroni multiple comparison post-test.

[2] = Human rhinovirus sp., HRV4, HeLa

Row | IC50 (HRV-4; [2]) [µM] | IC50 (HRV-4) [µM] | Structure (SMILES) | CC50 at 2 days [1] [mM]
1 | 514 | 514 | COc1ccc(C(C)=O)c(O)c1 [PA, paeonol] | 3.16
2 | 324 | 324 | NC(=O)c1ncn([C@@H]2O[C@H](CO)[C@@H](O)[C@H]2O)n1 [Ribavirin, reference compound] | 2.34

Row | Structure (SMILES) | IC50 (HRV-4; [2]) [µM] | IC50 (HRV-4) [µM] | CC50 at 2 days [1] [mM]
3 | O=C(OC[C@H]1O[C@@H](OC(=O)c2cc(O)c(O)c(O)c2)[C@H](OC(=O)c2cc(O)c(O)c(O)c2)[C@@H](OC(=O)c2cc(O)c(O)c(O)c2)[C@@H]1OC(=O)c1cc(O)c(O)c(O)c1)c1cc(O)c(O)c(O)c1 [PGG, 1,2,3,4,6-penta-O-galloyl-β-D-glucopyranose] | 14.4 | 14.4 | 0.109
